From patent US20240174714A1, “TREATMENT OF SKIN DISORDERS” (priority 2021, published 2024)
In brackets after ≈: the same amount, converted by molar mass. Square brackets hold non-standard residues; d marks the D form. Peptide text beside a SMILES is read from it. * marks the point of attachment. NH(1-CH2NMe2-cBu) = CN(C)CC1(N*)CCC1; Benzoyl(4-F) = O=C(c1ccc(F)cc1)*; hCha = N[C@@H](CCC1CCCCC1)C(=O)O; Aib = CC(C)(N)C(=O)O; βAla = NCCC(=O)O

What was measured:
[1] = Cytotoxicity assay (Alamar Blue) on L6-cells; type: cell-based, rat; conditions: rat
Experimental: Tests were done in triplicate.
The plates were incubated for additional 2 h.

[2] = test system: Staphylococcus aureus ATCC 33591; test: microbe, parasite or virus in culture; type: cell-based; conditions: ATCC 33591, Methicillin resistant; 6027 acetate
[3] = test system: Staphylococcus aureus ECL 2963646; test: microbe, parasite or virus in culture; type: cell-based
[4] = test system: Trichophyton mentagrophytes (ATCC 9533); type: cell-based
Experimental: (§1) Pre-formulated compound solution was diluted in 100% DMSO to prepare a 1.6 mg/mL working stock solution. […] Test concentration range was 0.032 to 32 μg/mL.
(§2) Vehicle-control and an active reference agent were used as blank and positive controls.

[5] = test system: Trichophyton rubrum (ATCC 10218); type: cell-based
Experimental: as §1, §2

[6] = after 48 hours; donor 0.1% 6027 in DMSO; acceptor PBS + 2% Volpo; % of total 6027
Experimental: The ears were washed with tap water and the hairs were removed with an electric clipper. The skin was separated from the underlying cartilage from the backside of the ear by using a scalpel. After washing the skin again, it was stored in aluminium foil at −20° C. for no longer than one month.
After thawing the frozen skin, it was cut into adequate circles and the skin thickness was measured with a calliper. The skin was mounted into the FDC, tightly sealed with Teflon band and fixed in special designed holder. Then the acceptor compartment was equipped with a magnetic stirrer, filled with placebo formulation and equilibrated for one hour. To check the barrier integrity and to be sure that there are no invisible damages from skin preparation TEWL (transepidermal water loss) was measured. The FDCs were then placed in the water bath +32° C. ±1 over a magnetic stirrer (500 rpm). Due to differences of each FDC, the skin application area for drug permeation was measured and calculated for each cell in advance. Consequently, the amount of 6027 for the donor compartment had to be adjusted for the infinite-dose experiment to 284.1 μL/cm^2.
At predefined time points 50 μL samples were taken from the acceptor compartment. The missing volume was replaced with the corresponding placebo formulation.
At the end of the permeation experiment and before reassembling the FDCs, the donor compartments were washed out with 10 mL ACN:H2O (55:45).
To extract 6027 from the skin, the frozen skin was cut into small pieces and grinded by a cryogenic grinder Freezer/Mill® from Spex SamplePrep (Metuchen, USA). The setting was 10 min precooling and a rate of 10 CPS for 4 cycles with 2 minutes. The resulting powder was resuspended in 2 mL ACN:H2O (55:45). After being vortex, the mixtures were ultrasonicated with Branson Sonifier 250 (model: 101-cx03-197) from Branson Ultrasonics Corporation (Danbury, USA). The setting for ultrasonification was output control 2 and duty cycle 30% for 60 seconds. […]
The concentrations of 6027 were determined by using HPLC-MS from Agilent Technologies. […]

[7] = test system: Staphylococcus aureus NARSA NRS22; test: microbe, parasite or virus in culture; type: cell-based
[8] = test system: Streptococcus pyogenes ATCC 19615; test: MIC broth microdilution, method 1; type: cell-based; conditions: CAMHB II, 5% LHB, 1 day at 36° C., 6027 acetate
[9] = physchem; conditions: octanol/water
[10] = test system: Staphylococcus aureus NARSA VRS2; test: microbe, parasite or virus in culture; type: cell-based
[11] = physchem; conditions: water
[12] = test system: Staphylococcus aureus ATCC 43300, MRSA; type: cell-based; conditions: ATCC 43300, 18 h
Experimental: The antibacterial activity of inventive compounds was evaluated in duplicate in a further Minimum Inhibitory Concentration (MIC) assay.
Bacteria were cultured in Cation-adjusted Mueller Hinton broth (CAMHB) at 37° C. overnight. A sample of each culture was then diluted 40-fold in fresh broth and incubated at 37° C. for 1.5-3 h. The resultant mid-log phase cultures were diluted (CFU/mL measured by OD600), then added to each well of the compound containing plates, giving a cell density of 5×10^5 CFU/mL and a total volume of 50 μL. All the plates were covered and incubated at 37° C. for 18 h without shaking.
Samples were prepared in DMSO and serially diluted 2 fold 8 times. Each sample concentration was prepared in 384-well plates, non-binding surface plate (NBS; Corning 3640) for the bacterial strain ATCC 43300, MRSA. The final DMSO concentration was at a maximum of 0.5%.
Inhibition of bacterial growth was determined measuring absorbance at 600 nm (OD600), using a Tecan M1000 Pro monochromator plate reader. The percentage of growth inhibition was calculated for each well, using the negative control (media only) and positive control (bacteria without inhibitors) on the same plate as references. […] Vancomycin was used as positive bacterial inhibitor standards.

[13] = test system: Staphylococcus aureus ATCC BAA-1556, USA300 MRSA; test: microbe, parasite or virus in culture; type: cell-based; conditions: ATCC BAA-1556
Experimental: Pre-formulated compound solution was diluted in 100% DMSO to prepare a 1.6 mg/mL working stock solution. […] The concentration range was 0.032 to 32 μg/mL.

[14] = test system: Staphylococcus aureus ATCC BAA-1556; test: microbe, parasite or virus in culture; type: cell-based; conditions: ATCC BAA-1556

SMILES: CC(C)C[C@H](NC(=O)[C@H](CCC1CCCCC1)NC(=O)[C@@H]1CCCN1C(=O)c1ccc(F)cc1)C(=O)NC(C)(C)C(=O)N[C@@H](CC(C)C)C(=O)N[C@@H](CC(C)C)C(=O)NC(C)(C)C(=O)NC(C)(C)C(=O)NCCC(=O)NC1(CN(C)C)CCC1 [Compound 6027, (2S)-2-[(2S)-4-cyclohexyl-2-{[(2S)-1-(4-fluorobenzoyl)pyrrolidin-2-yl]formamido}butanamido]-N-(1-{[(1S)-1-{[(1S)-1-({1-[(1-{[2-({1-[(dimethylamino)methyl]cyclobutyl}carbamoyl)ethyl]carbamoyl}-1-methylethyl)carbamoyl]-1-methylethyl}carbamoyl)-3-methylbutyl]carbamoyl}-3-methylbutyl]carbamoyl}-1-methylethyl)-4-methylpentanamide] ({Benzoyl(4-F)}-P[hCha]L[Aib]LL[Aib][Aib][βAla]-{NH(1-CH2NMe2-cBu)})
- IC50 at 68 h [1]: 1340 nM
- MIC of 6027 [2]: 4 µg/mL
- MIC of 6027 [3]: 2 µg/mL
- T. mentagrophytes (ATCC 9533) MIC [4]: 16 µg/mL
- T. rubrum (ATCC 10218) MIC [5]: 32 µg/mL
- Acceptor (%) [6]: 0.2%
- Donor (%) [6]: 79%
- Skin extraction (%) (skin penetration) [6]: 16%
- MIC of 6027 [7]: 2 µg/mL
- MIC of 6027 [8]: 4 µg/mL
- logD [9]: 4.56
- MIC of 6027 [10]: 2 µg/mL
- solubility [11]: 22 µg/mL (≈ 18.6 µM)
- MIC [12]: 2 µg/mL (≈ 1.69 µM)
- MIC [13]: 1 µg/mL (≈ 0.847 µM)
- MIC of 6027 [14]: 2 µg/mL
